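Dose response: 5 concentrations. Exposure: 48 h. Format: 96-well plates. Endpoint: linear interpolation; highest concentration if not reached. GI50: concentration for 50% inhibition of growth. TGI is the concentration that stops growth completely.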 Active and inactive are the calls of the source. Rule as the data show it: active = GI50 below about 0.43 µM; inactive = the rest.
What was measured:
Assay in all cases: NCI anticancer screen, dose series, 48 h
OVCAR-5 ovarian = test system: OVCAR-5 ovarian
HOP-62 NSCLC = test system: HOP-62 NSCLC
MDA-MB-231 breast = test system: MDA-MB-231 breast
U251 CNS = test system: U251 CNS
SN12C renal = test system: SN12C renal
SF-295 CNS = test system: SF-295 CNS
SK-MEL-2 melanoma = test system: SK-MEL-2 melanoma
HOP-92 NSCLC = test system: HOP-92 NSCLC
SK-MEL-28 melanoma = test system: SK-MEL-28 melanoma
MALME-3M melanoma = test system: MALME-3M melanoma
DU-145 prostate = test system: DU-145 prostate
NCI-H522 lung = test system: NCI-H522 lung
IGROV1 ovarian = test system: IGROV1 ovarian
PC-3 prostate = test system: PC-3 prostate
MDA-MB-435 = test system: MDA-MB-435
SW-620 colon = test system: SW-620 colon
COLO 205 colon = test system: COLO 205 colon
CAKI-1 renal = test system: CAKI-1 renal
UO-31 renal = test system: UO-31 renal
HCT-116 colon = test system: HCT-116 colon
TK-10 renal = test system: TK-10 renal
NCI-H460 lung = test system: NCI-H460 lung
KM12 colon = test system: KM12 colon
OVCAR-8 ovarian = test system: OVCAR-8 ovarian
OVCAR-4 ovarian = test system: OVCAR-4 ovarian
LOX IMVI melanoma = test system: LOX IMVI melanoma
SF-268 CNS = test system: SF-268 CNS
UACC-257 melanoma = test system: UACC-257 melanoma
A498 renal = test system: A498 renal
HCC-2998 colon = test system: HCC-2998 colon
BT-549 breast = test system: BT-549 breast
SK-OV-3 ovarian = test system: SK-OV-3 ovarian
NCI/ADR-RES ovarian = test system: NCI/ADR-RES ovarian
SNB-75 CNS = test system: SNB-75 CNS
UACC-62 melanoma = test system: UACC-62 melanoma
NCI-H23 lung = test system: NCI-H23 lung
SR leukemia = test system: SR leukemia
786-0 renal = test system: 786-0 renal
M14 melanoma = test system: M14 melanoma
HL-60(TB) leukemia = test system: HL-60(TB) leukemia
T-47D breast = test system: T-47D breast
HCT-15 colon = test system: HCT-15 colon
HT29 colon = test system: HT29 colon
RXF 393 renal = test system: RXF 393 renal
HS 578T breast = test system: HS 578T breast
ACHN renal = test system: ACHN renal
SF-539 CNS = test system: SF-539 CNS
OVCAR-3 ovarian = test system: OVCAR-3 ovarian
SNB-19 CNS = test system: SNB-19 CNS
MCF7 breast = test system: MCF7 breast
K-562 leukemia = test system: K-562 leukemia
SK-MEL-5 melanoma = test system: SK-MEL-5 melanoma
CCRF-CEM leukemia = test system: CCRF-CEM leukemia
EKVX NSCLC = test system: EKVX NSCLC
MOLT-4 leukemia = test system: MOLT-4 leukemia
A549 NSCLC = test system: A549 NSCLC

NCCCOc1cc2ccccc2cc1C(=O)NCCOc1nc2ccccc2cc1C(=O)Nc1ccc(Cl)cc1O
2340 nM: TGI (SF-539 CNS)
2760 nM: TGI (TK-10 renal) | TGI (SNB-19 CNS)
1820 nM: TGI (OVCAR-4 ovarian)
3570 nM: TGI (SK-MEL-2 melanoma)
inactive: GI50 (OVCAR-5 ovarian) 1500 nM | GI50 (HOP-62 NSCLC) 721 nM | GI50 (MDA-MB-231 breast) 1170 nM | GI50 (U251 CNS) 1050 nM | GI50 (SN12C renal) 1330 nM | GI50 (SF-295 CNS) 1060 nM | GI50 (SK-MEL-2 melanoma) 1870 nM | GI50 (SK-MEL-28 melanoma) 1300 nM | GI50 (MALME-3M melanoma) 1280 nM | GI50 (DU-145 prostate) 1340 nM | GI50 (NCI-H522 lung) 1340 nM | GI50 (IGROV1 ovarian) 1220 nM | GI50 (MDA-MB-435) 1000 nM | GI50 (COLO 205 colon) 1100 nM | GI50 (CAKI-1 renal) 1330 nM | GI50 (UO-31 renal) 1190 nM | GI50 (TK-10 renal) 1300 nM | GI50 (NCI-H460 lung) 482 nM | GI50 (KM12 colon) 1050 nM | GI50 (OVCAR-8 ovarian) 1250 nM | GI50 (LOX IMVI melanoma) 1070 nM | GI50 (SF-268 CNS) 1120 nM | GI50 (UACC-257 melanoma) 678 nM | GI50 (HCC-2998 colon) 1670 nM | GI50 (BT-549 breast) 1370 nM | GI50 (SK-OV-3 ovarian) 1340 nM | GI50 (NCI/ADR-RES ovarian) 1730 nM | GI50 (SNB-75 CNS) 1100 nM | GI50 (NCI-H23 lung) 941 nM | GI50 (786-0 renal) 1170 nM | GI50 (M14 melanoma) 1310 nM | GI50 (HL-60(TB) leukemia) 621 nM | GI50 (T-47D breast) 517 nM | GI50 (HCT-15 colon) 818 nM | GI50 (HT29 colon) 1500 nM | GI50 (RXF 393 renal) 1530 nM | GI50 (HS 578T breast) 1630 nM | GI50 (ACHN renal) 1070 nM | GI50 (SF-539 CNS) 1120 nM | GI50 (OVCAR-3 ovarian) 882 nM | GI50 (SNB-19 CNS) 1310 nM | GI50 (K-562 leukemia) 544 nM
2750 nM: TGI (M14 melanoma)
3030 nM: TGI (BT-549 breast)
2380 nM: TGI (COLO 205 colon)
2030 nM: TGI (UACC-62 melanoma)
3350 nM: TGI (NCI/ADR-RES ovarian)
2460 nM: TGI (MDA-MB-231 breast)
3020 nM: TGI (RXF 393 renal)
2670 nM: TGI (DU-145 prostate)
1990 nM: TGI (PC-3 prostate)
2370 nM: TGI (HOP-62 NSCLC) | TGI (MDA-MB-435) | TGI (HL-60(TB) leukemia)
2060 nM: TGI (SW-620 colon)
3100 nM: TGI (OVCAR-8 ovarian)
2840 nM: TGI (NCI-H522 lung)
2570 nM: TGI (SK-MEL-28 melanoma)
2830 nM: TGI (OVCAR-5 ovarian)
2410 nM: TGI (U251 CNS) | TGI (NCI-H23 lung)
2690 nM: TGI (SF-268 CNS)
1870 nM: TGI (NCI-H460 lung)
2820 nM: TGI (UO-31 renal)
1920 nM: TGI (MCF7 breast)
2490 nM: TGI (786-0 renal)
2470 nM: TGI (SF-295 CNS)
2170 nM: TGI (HCT-116 colon)
2300 nM: TGI (SNB-75 CNS) | TGI (ACHN renal)
active: GI50 (HOP-92 NSCLC) 126 nM | GI50 (PC-3 prostate) 269 nM | GI50 (SW-620 colon) 82.9 nM | GI50 (HCT-116 colon) 252 nM | GI50 (OVCAR-4 ovarian) 75.5 nM | GI50 (A498 renal) 342 nM | GI50 (UACC-62 melanoma) 270 nM | GI50 (SR leukemia) 224 nM | GI50 (MCF7 breast) 295 nM
3890 nM: TGI (HS 578T breast)
2390 nM: TGI (LOX IMVI melanoma) | TGI (T-47D breast)
2740 nM: TGI (SN12C renal)
2930 nM: TGI (CAKI-1 renal)
2800 nM: TGI (IGROV1 ovarian)
2110 nM: TGI (UACC-257 melanoma) | TGI (SR leukemia) | TGI (HCT-15 colon)
2790 nM: TGI (MALME-3M melanoma)
2400 nM: TGI (KM12 colon)
3450 nM: TGI (A498 renal)
3120 nM: TGI (HT29 colon)
3300 nM: TGI (K-562 leukemia)
3180 nM: TGI (HCC-2998 colon)
1320 nM: TGI (HOP-92 NSCLC)
2250 nM: TGI (OVCAR-3 ovarian)
2630 nM: TGI (SK-OV-3 ovarian)

O=c1cc(-c2cc(O)c(O)c(-c3c(O)cc(O)c4c(=O)cc(-c5ccc(O)c(O)c5)oc34)c2)oc2cc(O)cc(O)c12
inactive: outcome (OVCAR-5 ovarian) | outcome (HOP-62 NSCLC) | outcome (MDA-MB-231 breast) | outcome (SK-MEL-5 melanoma) | outcome (U251 CNS) | outcome (SN12C renal) | outcome (SF-295 CNS) | outcome (SK-MEL-2 melanoma) | outcome (HOP-92 NSCLC) | outcome (SK-MEL-28 melanoma) | outcome (MALME-3M melanoma) | outcome (DU-145 prostate) | outcome (IGROV1 ovarian) | outcome (PC-3 prostate) | outcome (MDA-MB-435) | outcome (SW-620 colon) | outcome (COLO 205 colon) | outcome (CAKI-1 renal) | outcome (UO-31 renal) | outcome (HCT-116 colon) | outcome (TK-10 renal) | outcome (NCI-H460 lung) | outcome (OVCAR-8 ovarian) | outcome (CCRF-CEM leukemia) | outcome (OVCAR-4 ovarian) | outcome (LOX IMVI melanoma) | outcome (SF-268 CNS) | outcome (UACC-257 melanoma) | outcome (A498 renal) | outcome (HCC-2998 colon) | outcome (BT-549 breast) | outcome (SK-OV-3 ovarian) | outcome (NCI/ADR-RES ovarian) | outcome (SNB-75 CNS) | outcome (EKVX NSCLC) | outcome (UACC-62 melanoma) | outcome (NCI-H23 lung) | outcome (SR leukemia) | outcome (MOLT-4 leukemia) | outcome (A549 NSCLC) | outcome (M14 melanoma) | outcome (HL-60(TB) leukemia) | outcome (T-47D breast) | outcome (HCT-15 colon) | outcome (HT29 colon) | outcome (RXF 393 renal) | outcome (HS 578T breast) | outcome (SF-539 CNS) | outcome (OVCAR-3 ovarian) | outcome (SNB-19 CNS) | outcome (MCF7 breast) | outcome (K-562 leukemia)
